Assay [1] has as its target T1, Glucocorticoid Receptor of Rat Thymus (Rattus norvegicus, UniProt P06536).
T1 construct: The thymuses were removed and homogenized at 0° C; from tissue; host or cells: thymus cytosol (105,000 g supernatant) of adrenalectomised male Sprague-Dawley rats
T1 sequence (P06536 1-795): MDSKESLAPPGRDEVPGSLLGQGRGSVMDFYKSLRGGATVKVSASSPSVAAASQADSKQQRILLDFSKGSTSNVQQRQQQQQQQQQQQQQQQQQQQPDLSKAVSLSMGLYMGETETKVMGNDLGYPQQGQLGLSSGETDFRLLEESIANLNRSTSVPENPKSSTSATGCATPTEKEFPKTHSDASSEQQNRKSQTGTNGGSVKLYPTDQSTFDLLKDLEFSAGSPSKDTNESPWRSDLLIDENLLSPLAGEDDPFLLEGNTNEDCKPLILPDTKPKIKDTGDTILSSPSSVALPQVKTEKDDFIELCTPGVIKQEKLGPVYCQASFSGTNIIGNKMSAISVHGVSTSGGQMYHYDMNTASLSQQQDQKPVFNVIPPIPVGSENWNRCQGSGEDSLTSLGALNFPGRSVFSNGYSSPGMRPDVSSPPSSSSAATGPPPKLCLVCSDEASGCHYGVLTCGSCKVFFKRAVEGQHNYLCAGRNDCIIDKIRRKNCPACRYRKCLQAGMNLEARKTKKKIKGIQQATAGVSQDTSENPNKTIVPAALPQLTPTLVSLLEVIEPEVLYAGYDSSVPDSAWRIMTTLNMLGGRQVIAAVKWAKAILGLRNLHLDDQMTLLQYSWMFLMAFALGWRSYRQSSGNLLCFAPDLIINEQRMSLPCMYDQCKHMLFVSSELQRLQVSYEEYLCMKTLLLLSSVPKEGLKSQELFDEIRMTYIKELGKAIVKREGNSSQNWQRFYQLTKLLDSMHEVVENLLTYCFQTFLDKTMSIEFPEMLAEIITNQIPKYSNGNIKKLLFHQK
The assay is described as follows: Relative affinity of the bond, glucocorticoid receptor (tritiated dexamethasone displacement). The assay is classed as binding. The following applies: RAB=100(CH)/(CX); for Relative affinity of the bond (RAB), Glucocoticoid, 4 H: incubation 4 H at 0° C.; for Relative affinity of the bond (RAB), Glucocoticoid, 24 H: incubation 24 H at 0° C. As to the method: Glucocorticoid Receptor of Rat Thymus:
Male Sprague Dawley EOPS rats weighing 160 to 200 g were subjected to suprarenalectomy and 4 to 8 days after this intervention, the animals were killed. The thymuses were removed and homogenized at 0° C. in a 10 mM Tris, 0.25 M saccharose, 2 mM dithiothreitol, HCL pH 7.4 buffer, with the aid of a Potter polytetrafluoroethylene-glass (1 g of tissue for 10 ml of TS). The homogenate was subsequently ultracentrifuged (105,000 g×90 min) at 0° C. and aliquots of the supernatant were incubated at 0° C. for a time (t) with a constant concentration (T) of tritiated dexamethasone in the presence of increasing concentrations (0-2,500.10^−9 M) either of cold dexamethasone, or of cold product to be tested. The concentration (B) of the bound tritiated dexamethasone was measured in each incubate by the adsorption technique on dextran carbon.
(§1) Calculation of the Relative Affinty of the Bond
(§2) The calculation of the Relative Affinity of the Bond (RAB) was identical for all the receptors. The following 2 curves were traced; the percentage of the bound tritiated hormone [formula]
(§3) was a function of the logarithm of the concentration of the cold reference hormone and [formula]
(§4) as a function of the logarithm of the concentration of the cold product tested.
(§5) One determined the straight line of the equation [formula]
(§6) The intersections of the straight line I50 and of the curves make it possible to evaluate the concentrations of the cold reference hormone (CH) and of the tested cold product (CX) which inhibit to an extend of 50% the binding of the tritiated hormone upon the receptor. The relative affinity of the bond (RAB) of the tested product is determined by the equation

Assay [2] has as its target T2, Estrogenic Receptor of Mouse Uterus (Mus musculus, UniProt P19785).
T2 construct: their uteri were removed, then homogenized at 0° C; from tissue; host or cells: uterine cytosol (105,000 g supernatant) of immature female mice
T2 sequence (P19785 1-599): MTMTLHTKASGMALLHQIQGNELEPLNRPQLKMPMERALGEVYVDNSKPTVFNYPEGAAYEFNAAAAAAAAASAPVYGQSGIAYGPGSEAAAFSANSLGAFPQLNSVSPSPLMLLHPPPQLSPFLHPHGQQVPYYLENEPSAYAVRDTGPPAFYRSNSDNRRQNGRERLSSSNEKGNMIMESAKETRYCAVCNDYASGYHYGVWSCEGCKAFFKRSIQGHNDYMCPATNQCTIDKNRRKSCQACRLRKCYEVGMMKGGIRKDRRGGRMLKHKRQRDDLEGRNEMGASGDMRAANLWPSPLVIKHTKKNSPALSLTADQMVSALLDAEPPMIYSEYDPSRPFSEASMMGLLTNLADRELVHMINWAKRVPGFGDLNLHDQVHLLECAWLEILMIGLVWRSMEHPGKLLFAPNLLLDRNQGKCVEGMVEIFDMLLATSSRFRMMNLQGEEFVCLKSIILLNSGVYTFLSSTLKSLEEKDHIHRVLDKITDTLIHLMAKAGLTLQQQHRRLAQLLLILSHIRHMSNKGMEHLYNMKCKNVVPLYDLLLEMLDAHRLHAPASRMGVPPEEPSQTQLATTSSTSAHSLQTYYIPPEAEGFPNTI
The assay is described as follows: Relative affinity of the bond, estrogen receptor (tritiated estradiol displacement). The assay is classed as binding. Conditions: for affinity for the estrogen receptors: at the second time (incubation); for Relative affinity of the bond (RAB), Oestrogen, 2 H: incubation 2 H at 0° C.; for Relative affinity of the bond (RAB), Oestrogen, 2 H / Relative affinity of the bond (RAB), Oestrogen, 6 H: RAB=100(CH)/(CX); for Relative affinity of the bond (RAB), Oestrogen, 6 H: incubation 6 H (second time). Here is the method:
Estrogenic Receptor of Mouse Uterus:
Impuberal female mice aged from 18 to 21 days were killed and their uteri were removed, then homogenized at 0° C. with the aid of a Potter teflon-glass in a TS buffered solution (10 mM Tris, 0.25 M saccharose, HCL pH 7.4) (1 g of tissue for 25 ml of TS). The homogenate was ultracentrifuged (105,000 g×90 min) at 0° C. and aliquots of the supernatant were incubated at 0° C. or at 25° C. for a time (t) with a constant concentration (T) of tritiated estradiol in the presence of increasing concentrations (0-1000×10^−9 M) either of cold estradiol, or of the cold product to be tested. The concentration (B) of bound tritiated estradiol was measured in each incubate by the technique of adsorption on dextran carbon.
as §1, §2, §3, §4, §5, §6

The text below walks through data of patent US6790971B1, “19-Nor-steroids” (Aventis Pharma S.A., priority 1989, dated 2004).

With `CCCCN(C)C(=O)CCCCCCCCCC[C@H]1C[C@]2(C)[C@@H](O)CC[C@H]2[C@@H]2CCc3cc(O)ccc3[C@@H]12` [Example 13, N-Butyl-3,17β-Dihydroxy-N-Methyl-11β-Δ^1,3,5(10)-Estratriene-Undecanamide], in assay [1], the “Relative affinity of the bond (RAB), Glucocoticoid, 4 H” value (“Relative affinity … Glucocoticoid, 4 H” for short) amounted to 7 and the “Relative affinity of the bond (RAB), Glucocoticoid, 24 H” value (shortened to “Relative affinity of the bond … 24 H”) stood at 7. For the same compound, in assay [2], the “affinity for the estrogen receptors” value is “marked affinity”; the “Relative affinity of the bond (RAB), Oestrogen, 2 H” value (“Relative affinity of the bond … 2 H” for short) is recorded as 0.13; the “Relative affinity of the bond (RAB), Oestrogen, 6 H” value (shortened to “Relative affinity of the bond … 6 H”) is 27.
As to `CC(C)N(C)C(=O)CCCCCCCCCC[C@H]1C[C@]2(C)[C@@H](O)CC[C@H]2[C@@H]2CCc3cc(O)ccc3[C@@H]12` [Example 16, 3,17β-dihydroxy-N-methyl-N-isopropyl-11β-Δ^1,3,5(10)-estratriene undecanamide], in assay [1], the “Relative affinity … Glucocoticoid, 4 H” value is recorded as 12 and the “Relative affinity of the bond … 24 H” value turned out to be 11. In addition, in assay [2], the “affinity for the estrogen receptors” value was “marked affinity”; the “Relative affinity of the bond … 2 H” value was found to be 0.6; the “Relative affinity of the bond … 6 H” value turned out to be 60.
Consider `CN(Cc1ccccc1)C(=O)CCCCCCCCCC[C@H]1C[C@]2(C)[C@@H](O)CC[C@H]2[C@@H]2CCC3=CC(=O)CCC3=C12` [Example 17, N-benzyl-17β-hydroxy-N-methyl-3-oxo-11β-Δ^4,9-estradiene undecanamide], for which, in assay [1], the “Relative affinity … Glucocoticoid, 4 H” value was 3 and the “Relative affinity of the bond … 24 H” value turned out to be 6. Further, in assay [2], the “Relative affinity of the bond … 2 H” value is recorded as 0.1 and the “Relative affinity of the bond … 6 H” value is on record as 0.01.
The matching figures for `CN(C)CCN(C)C(=O)CCCCCCCCCC[C@H]1C[C@]2(C)[C@@H](O)CC[C@H]2[C@@H]2CCC3=CC(=O)CCC3=C12` [Example 19, N-[2-(dimethylamino)-ethyl]-17β-hydroxy-N-methyl-3-oxo-11β-Δ^4,9-estradiene undecanamide]: 6, 4.6, 0.3 and 0.8.
The matching figures for `CC#C[C@]1(O)CC[C@H]2[C@@H]3CCC4=CC(=O)CCC4=C3[C@@H](CCCCCCCCCCC(=O)NCCCC)C[C@@]21C` [Example 22, N-butyl-17β-hydroxy-3-oxo-17α-(1-propynyl)-11β-Δ^4,9-estradiene undecanamide]: 7, 14, 0.01 and 0.01.
On the same counts, the results for `CCCCN(C)C(=O)CCCCCCCCCCC[C@H]1C[C@]2(C)[C@@H](O)CC[C@H]2[C@@H]2CCc3cc(O)ccc3[C@@H]12` [Example 24, N-butyl-3,17β-dihydroxy-N-methyl-11β-Δ^1,3,5(10)-estratriene dodecanamide] are 2, 3, 0.02 and 13.
Turning to “N-butyl-3,17β-dihydroxy-N-methyl-19-nor-11β-Δ^1,3,5(10)-pregnatrien-20-yn undecanamide [Example 21]”, in assay [1], the “Relative affinity … Glucocoticoid, 4 H” value was 2 and the “Relative affinity of the bond … 24 H” value is given as 2.6. Besides, in assay [2], the “Relative affinity of the bond … 2 H” value turned out to be 0.06 and the “Relative affinity of the bond … 6 H” value was found to be 7.4.
